Key:
[1] = system: SRC; test: RT-PCR of SRC mRNA in patient biopsy-derived primary myotubes; assay type: cell-based, human; details: 10 nM-1 μM, 2.5 days, vs vehicle
Experimental: Patient biopsy-derived primary myoblasts were seeded to a collagen-I coated plate in primary myoblast medium. Medium was changed every other day until cells reached 80% confluence followed by a switch to primary myotube medium. […] After 2.5 days of myotube formation, the cells were lysed with buffer RLT followed by RNA isolation with RNeasy Plus Mini Kit (Qiagen). 500 ng of RNA was used for cDNA synthesis with SuperScript III first-strand synthesis system for RT-PCR (Invitrogen) and both random hexamers and oligo(dT)20 primers. RT-PCR was performed using TaqMan™ Fast Advanced Master Mix (Applied Biosystems). Reactions were analyzed upon a QuantStudio 3 Real-Time PCR machine using the following cycle conditions: 50° C. for 2 minutes, 95° C. for 2 minutes, followed by 40 cycles at 95° C. for 15 seconds, 60° C. for 1 minute, Results were normalized against GAPDH expression.

[2] = system: PRKDC; test: Immunofluorescence of nuclear phosphorylated PRKDC^2609 in primary myocytes; assay type: cell-based, human; details: 100 nM or 500 nM, 1 hour
Experimental: Patient biopsy-derived primary myoblasts were seeded to a collagen-I coated plate in primary myoblast medium. Medium was changed every other day until cells reached 80% confluence followed by a switch to primary myotube medium. […] PRKDC (phosphorylated PRKDC^2609), active SRC (phosphorylated SRC^416), and nuclei.

Structure (SMILES): CNC(=O)c1cc(Oc2ccc(NC(=O)Nc3cc(C(C)(C)C)nn3-c3ccc4ncccc4c3)c(F)c2)ccn1 [GBC0905, Rebastinib]
- expression levels of SRC (mRNA) [1]: No significant difference
- intensity distribution of nuclear phosphorylated PRKDC^2609 (kinase activity) [2]: significant shift towards lower intensity levels

Reference: US11806343B2, “Inhibitors of DUX4 induction for regulation of muscle function” (Sonic Master Limited, priority 2017, dated 2023)
